From publication PMC3454376, “Salidroside Improves Behavioral and Histological Outcomes and Reduces Apoptosis via PI3K/Akt Signaling after Experimental Traumatic Brain Injury” (PLoS ONE, 2012) come the findings set out here.

The assay has as its system mice subjected to controlled cortical impact injury. Briefly: Modified neurological severity score (mNSS) after CCI. Type of assay: in vivo. The method, then: All animal procedures were approved by the Animal Research Committee at Cheng Hsin General Hospital (Animal permit number […] 101-08), and all procedures complied with the Guide for the Care and Use of Laboratory Animals published by the US National Institutes of Health (NIH Publication No. 85-23, revised 1996). Animals were housed under a 12-h light/dark cycle and at constant temperature (21-25°C) and humidity (45-50%). They were allowed free access to pellet chow and water. TBI in mice was induced by a CCI injury model as previously described. Briefly, 8-week-old male C57BL/6 mice (weighing 22-25 g) were anesthetized through the use of intraperitoneal injection of sodium pentobarbital (65 mg/kg; Rhone Merieux, Harlow, UK) and placed in a stereotaxic frame. A 5 mm craniotomy was performed over the right parietal cortex, centered on the coronal suture and 0.1 mm lateral to the sagittal suture, and injury to dura was avoided. […] Body temperature was monitored throughout the surgery by a rectal probe; temperature was maintained at 37.0±0.5°C using a heated pad. […] To determine the optimal dose of salidroside, a pilot study was performed using 2 different doses (20 and 50 mg/kg) administered 10 min after injury, and neurological deficits and tissue damage were evaluated as the main outcomes. […]

Turning to `OC[C@H]1O[C@@H](OCCc2ccc(O)cc2)[C@H](O)[C@@H](O)[C@@H]1O` [SALD, salidroside], the “mNSS scores versus vehicle group” value (20 mg/kg ip 10 min after CCI, days 4, 14, 21, 28, all P<0.05) is recorded as “significant lower” and the “mNSS scores versus vehicle group” value (50 mg/kg ip 10 min after CCI, days 14, 21, 28, P<0.05) is reported as “significantly lower”.
